In ChEMBL document CHEMBL1201862, “PubChem BioAssay data set” (2004):
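48-hour exposure; five concentrations; linearly interpolated endpoints. Abbreviation: GI50, concentration required for 50% inhibition of growth.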 Active and inactive are the calls of the source. Rule as the data show it: active = GI50 up to about 1.1 µM and inactive = higher.

Columns and labels:
Assay in all cases: growth of human tumour cells (NCI), 48 h
A498 = tested on: A498
HCT-116 = tested on: HCT-116
SW-620 = tested on: SW-620
EKVX = tested on: EKVX
UO-31 = tested on: UO-31
NCI-H226 = tested on: NCI-H226
HCT-15 = tested on: HCT-15
SNB-19 = tested on: SNB-19
DMS-273 = tested on: DMS-273
M14 = tested on: M14
CCRF-CEM = tested on: CCRF-CEM
SK-MEL-28 = tested on: SK-MEL-28
SNB-78 = tested on: SNB-78
SK-OV-3 = tested on: SK-OV-3
UACC-62 = tested on: UACC-62
DLD-1 = tested on: DLD-1
UACC-257 = tested on: UACC-257
HOP-62 = tested on: HOP-62
Malme-3M = tested on: Malme-3M
HOP-92 = tested on: HOP-92
HL-60 = tested on: HL-60
RXF 393 = tested on: RXF 393
A549 = tested on: A549
786-0 = tested on: 786-0
SF-295 = tested on: SF-295
SF-539 = tested on: SF-539
SK-MEL-2 = tested on: SK-MEL-2
OVCAR-4 = tested on: OVCAR-4
HCC 2998 = tested on: HCC 2998
RPMI-8226 = tested on: RPMI-8226
SN12C = tested on: SN12C
IGROV-1 = tested on: IGROV-1
SK-MEL-5 = tested on: SK-MEL-5
COLO 205 = tested on: COLO 205
LOX IMVI = tested on: LOX IMVI
K562 = tested on: K562
TK-10 = tested on: TK-10
SR = tested on: SR
HOP-18 = tested on: HOP-18
NCI-H23 = tested on: NCI-H23
OVCAR-3 = tested on: OVCAR-3
ACHN = tested on: ACHN
KM-20L2 = tested on: KM-20L2
KM12 = tested on: KM12
CAKI-1 = tested on: CAKI-1
MOLT-4 = tested on: MOLT-4
DMS-114 = tested on: DMS-114
M19-MEL = tested on: M19-MEL
OVCAR-5 = tested on: OVCAR-5
HT-29 = tested on: HT-29
SNB-75 = tested on: SNB-75
SF-268 = tested on: SF-268
NCI-H460 = tested on: NCI-H460
U-251 = tested on: U-251
OVCAR-8 = tested on: OVCAR-8
LXFL 529 = tested on: LXFL 529
NCI-H522 = tested on: NCI-H522

## N#CC(C(=O)C(=O)C(C#N)c1ccc(Br)cc1)c1ccc(Br)cc1 (stereo unspecified)
A498
  GI50: 15.8 µM (inactive)
HCT-116
  GI50: 14.1 µM (inactive)
SW-620
  GI50: 14.7 µM (inactive)
EKVX
  GI50: 12 µM (inactive)
UO-31
  GI50: 16.3 µM (inactive)
NCI-H226
  GI50: 18.1 µM (inactive)
HCT-15
  GI50: 13.3 µM
SNB-19
  GI50: 17 µM (inactive)
DMS-273
  GI50: 12.1 µM (inactive)
M14
  GI50: 14.2 µM (inactive)
CCRF-CEM
  GI50: 4.47 µM (inactive)
SK-MEL-28
  GI50: 14.6 µM (inactive)
SNB-78
  GI50: 12.2 µM (inactive)
SK-OV-3
  GI50: 15.7 µM (inactive)
UACC-62
  GI50: 1.51 µM (inactive)
DLD-1
  GI50: 14.3 µM (inactive)
UACC-257
  GI50: 11.9 µM (inactive)
HOP-62
  GI50: 13.2 µM (inactive)
Malme-3M
  GI50: 13.6 µM (inactive)
HOP-92
  GI50: 13.3 µM (inactive)
HL-60
  GI50: 4.06 µM (inactive)
RXF 393
  GI50: 4.26 µM (inactive)
A549
  GI50: 23.3 µM (inactive)
786-0
  GI50: 12.9 µM (inactive)
SF-295
  GI50: 13.6 µM (inactive)
SF-539
  GI50: 15.5 µM (inactive)
SK-MEL-2
  GI50: 13.9 µM (inactive)
OVCAR-4
  GI50: 12.3 µM (inactive)
HCC 2998
  GI50: 12 µM (inactive)
RPMI-8226
  GI50: 4.65 µM (inactive)
SN12C
  GI50: 14.5 µM (inactive)
IGROV-1
  GI50: 15.6 µM (inactive)
SK-MEL-5
  GI50: 14.4 µM (inactive)
COLO 205
  GI50: 16.5 µM (inactive)
LOX IMVI
  GI50: 11 µM (inactive)
K562
  GI50: 12.6 µM (inactive)
TK-10
  GI50: 16.8 µM (inactive)
SR
  GI50: 6.37 µM (inactive)
HOP-18
  GI50: 11.4 µM (inactive)
NCI-H23
  GI50: 3.91 µM (inactive)
OVCAR-3
  GI50: 9.38 µM (inactive)
ACHN
  GI50: 12.6 µM (inactive)
KM-20L2
  GI50: 12.2 µM (inactive)
KM12
  GI50: 10.6 µM (inactive)
CAKI-1
  GI50: 21 µM (inactive)
MOLT-4
  GI50: 4.4 µM (inactive)
DMS-114
  GI50: 12.1 µM (inactive)
M19-MEL
  GI50: 12.1 µM (inactive)
OVCAR-5
  GI50: 18.2 µM (inactive)
HT-29
  GI50: 8.59 µM (inactive)
SNB-75
  GI50: 5.13 µM (inactive)
SF-268
  GI50: 10.5 µM (inactive)
NCI-H460
  GI50: 16 µM (inactive)
U-251
  GI50: 11.6 µM (inactive)

## CCOC(=O)c1[nH]c2cc(OC)c(OC)cc2c1CN(C)C
A498
  GI50: > 100 µM (inactive)
HCT-116
  GI50: > 100 µM (inactive)
SW-620
  GI50: > 100 µM (inactive)
EKVX
  GI50: > 100 µM (inactive)
UO-31
  GI50: > 100 µM (inactive)
NCI-H226
  GI50: > 100 µM (inactive)
OVCAR-8
  GI50: > 100 µM (inactive)
HCT-15
  GI50: > 100 µM
SNB-19
  GI50: > 100 µM (inactive)
M14
  GI50: > 100 µM (inactive)
CCRF-CEM
  GI50: > 100 µM (inactive)
SK-MEL-28
  GI50: > 100 µM (inactive)
SNB-78
  GI50: > 100 µM (inactive)
SK-OV-3
  GI50: > 100 µM (inactive)
UACC-62
  GI50: > 100 µM (inactive)
DLD-1
  GI50: > 100 µM (inactive)
UACC-257
  GI50: > 100 µM (inactive)
Malme-3M
  GI50: > 100 µM (inactive)
HOP-92
  GI50: > 100 µM (inactive)
HL-60
  GI50: > 100 µM (inactive)
RXF 393
  GI50: > 100 µM (inactive)
A549
  GI50: > 100 µM (inactive)
786-0
  GI50: > 100 µM (inactive)
SF-295
  GI50: > 100 µM (inactive)
SF-539
  GI50: > 100 µM (inactive)
SK-MEL-2
  GI50: > 100 µM (inactive)
OVCAR-4
  GI50: > 100 µM (inactive)
HCC 2998
  GI50: > 100 µM (inactive)
RPMI-8226
  GI50: > 100 µM (inactive)
SN12C
  GI50: > 100 µM (inactive)
IGROV-1
  GI50: > 100 µM (inactive)
SK-MEL-5
  GI50: > 100 µM (inactive)
LOX IMVI
  GI50: > 100 µM (inactive)
K562
  GI50: > 100 µM (inactive)
TK-10
  GI50: > 100 µM (inactive)
SR
  GI50: > 100 µM (inactive)
NCI-H23
  GI50: > 100 µM (inactive)
ACHN
  GI50: > 100 µM (inactive)
KM-20L2
  GI50: > 100 µM (inactive)
KM12
  GI50: > 100 µM (inactive)
CAKI-1
  GI50: > 100 µM (inactive)
MOLT-4
  GI50: > 100 µM (inactive)
DMS-114
  GI50: > 100 µM (inactive)
OVCAR-5
  GI50: > 100 µM (inactive)
HT-29
  GI50: > 100 µM (inactive)
SNB-75
  GI50: 67 µM (inactive)
SF-268
  GI50: > 100 µM (inactive)
NCI-H460
  GI50: > 100 µM (inactive)
U-251
  GI50: > 100 µM (inactive)

## COc1cc(C(=O)NO)ccc1O
A498
  GI50: > 100 µM (inactive)
HCT-116
  GI50: > 100 µM (inactive)
SW-620
  GI50: > 100 µM (inactive)
EKVX
  GI50: > 100 µM (inactive)
UO-31
  GI50: > 100 µM (inactive)
OVCAR-8
  GI50: > 100 µM (inactive)
HCT-15
  GI50: > 100 µM
SNB-19
  GI50: > 100 µM (inactive)
DMS-273
  GI50: > 100 µM (inactive)
M14
  GI50: > 100 µM (inactive)
CCRF-CEM
  GI50: > 100 µM (inactive)
SK-MEL-28
  GI50: > 100 µM (inactive)
SNB-78
  GI50: > 100 µM (inactive)
SK-OV-3
  GI50: > 100 µM (inactive)
UACC-62
  GI50: > 100 µM (inactive)
DLD-1
  GI50: > 100 µM (inactive)
UACC-257
  GI50: > 100 µM (inactive)
HOP-62
  GI50: > 100 µM (inactive)
Malme-3M
  GI50: > 100 µM (inactive)
HOP-92
  GI50: > 100 µM (inactive)
HL-60
  GI50: > 100 µM (inactive)
RXF 393
  GI50: > 100 µM (inactive)
A549
  GI50: > 100 µM (inactive)
786-0
  GI50: > 100 µM (inactive)
SF-295
  GI50: > 100 µM (inactive)
SF-539
  GI50: 87.7 µM (inactive)
SK-MEL-2
  GI50: > 100 µM (inactive)
OVCAR-4
  GI50: > 100 µM (inactive)
HCC 2998
  GI50: > 100 µM (inactive)
RPMI-8226
  GI50: > 100 µM (inactive)
SN12C
  GI50: > 100 µM (inactive)
IGROV-1
  GI50: > 100 µM (inactive)
COLO 205
  GI50: > 100 µM (inactive)
LOX IMVI
  GI50: > 100 µM (inactive)
K562
  GI50: > 100 µM (inactive)
TK-10
  GI50: > 100 µM (inactive)
HOP-18
  GI50: > 100 µM (inactive)
LXFL 529
  GI50: > 100 µM (inactive)
NCI-H23
  GI50: > 100 µM (inactive)
OVCAR-3
  GI50: > 100 µM (inactive)
ACHN
  GI50: > 100 µM (inactive)
KM-20L2
  GI50: > 100 µM (inactive)
KM12
  GI50: > 100 µM (inactive)
MOLT-4
  GI50: > 100 µM (inactive)
DMS-114
  GI50: > 100 µM (inactive)
M19-MEL
  GI50: > 100 µM (inactive)
OVCAR-5
  GI50: > 100 µM (inactive)
HT-29
  GI50: > 100 µM (inactive)
SNB-75
  GI50: > 100 µM (inactive)
SF-268
  GI50: > 100 µM (inactive)
NCI-H522
  GI50: > 100 µM (inactive)
NCI-H460
  GI50: > 100 µM (inactive)
U-251
  GI50: > 100 µM (inactive)
